Data as given in article PMC6943742, “Peptide/Peptoid Hybrid Oligomers: The Influence of Hydrophobicity and Relative Side-Chain Length on Antibacterial Activity and Cell Selectivity” (Molecules, 2019).
≈ marks a conversion by molar mass, not a printed value. Non-standard residues stand in square brackets, D forms with d. Residues, ends and D or L forms follow the SMILES beside them. Gly(NCH2CH2Ph) = O=C(O)CNCCc1ccccc1; Gly(N-2-aminoethyl) = NCCNCC(=O)O; hPhe = N[C@@H](CCc1ccccc1)C(=O)O; Gly(N(CH2)3NH2) = NCCCNCC(=O)O; Orn = NCCC[C@H](N)C(=O)O; Nlys = NCCCCNCC(=O)O

Columns and labels:
[1] = tested on: HepG2 cell line ATCC HB-8065; test: in vitro; assay type: cell-based; conditions: 48 h
Procedure: Side effects affecting cell viability were estimated on the HepG2 cell line ATCC HB-8065. In brief, HepG2 cells were seeded in flat-bottomed 96-well plates at a concentration of 5000 cells per well. At 80−90% confluency, the cells were incubated for 24 h in a humidified incubator (5% CO2, 37 °C). The medium was removed, and the cells were incubated for 48 h in a humidified incubator (5% CO2, 37 °C) with compounds in two-fold serial dilutions. An MTT assay was then performed as previously described. In brief, after incubation with the test compounds, the culture medium was removed and fresh medium with 0.2 mg/mL MTT was added in each well of the plate. After incubation (3 h, 37 °C, 5% CO2), the medium with MTT was removed, and 200 μL dimethyl sulfoxide were added at once to each sample. Absorbance of MTT was measured using spectrophotometer TECAN Infinite M1000 at 540 nm. The relative viability was calculated by using the formula: ODtreated cells × 100/ODcontrol cells. The IC50 values are calculated by using the program Graph Pad Prism® 5.0. For all compounds, the test range was 10–1280 μg/mL.

[2] = Relative hydrophobicity by RP-HPLC (% MeCN at peak elution); assay type: physicochemical; conditions: RP-HPLC gradient 0 → 60% B during 10 min; % MeCN at peak elution calculated from retention time
Procedure: The relative hydrophobicity of each peptidomimetic was measured by reverse-phase high-performance liquid chromatography (RP-HPLC). Typically, the RP-HPLC retention time (or percentage acetonitrile at peak elution) constitutes the preferred measure that allows for comparison of relative hydrophobicity, while log P values of polycationic peptides or peptidomimetics normally are considered unsuitable due to the extreme hydrophilic nature of such compounds [11, 45, 57, 58, 59, 60]. […] For both subgroups III (with cationic amino acid residues and the peptoid analogue of Phe, NPhe, i.e., 9–12) and IV (with cationic amino acid residues and the peptoid analogue of hPhe, NhPhe, i.e., 13–16) only minor differences in hydrophobicity were seen. These observations infer that, when the cationic residues are of a peptoid nature, the side-chain length of these has a […] influence on the hydrophobicity. […] Thus, introduction of additional six methylene groups results, as expected, in increased hydrophobicity.
Starting materials and solvents were purchased from commercial suppliers (Iris Biotech, Markredwitz, Germany; Fluorochem, Hadfield, United Kingdom; and Merck, Darmstadt, Germany) and used without further purification. Water used for analytical and preparative high-performance liquid chromatography (HPLC) was filtered through a 0.22-μm Millipore membrane filter. Purity and retention time of each peptidomimetic were determined by analytical UHPLC by using a Phenomenex Luna C18(2) HST column (100 mm × 3 mm; particle size: 2.5 μm; pore size: 100 Å) on a Shimadzu Prominence and Shimadzu Nexera system using an aqueous acetonitrile (MeCN) gradient with 0.1% trifluoroacetic acid (TFA) added (eluent A: 5:95 MeCN–H2O + 0.1% TFA, eluent B: 95:5 MeCN–H2O + 0.1% TFA); a flow rate of 0.5 mL/min was used. For elution of peptidomimetics, a linear gradient of 0% to 60% B during 10 min was used with UV detection at λ = 220 nm. […] For each peptidomimetic, the percentage of MeCN at peak elution was calculated from the retention time by using the following formula:(1) %MeCN = 0.95 (0.6Rt/10 min.) + 0.05 (1−0.6Rt/10 min.).

P. aeruginosa PAO1 = assay type: cell-based; conditions: PAO1, 20 h
Procedure: (§1) MIC values were evaluated by using the modified Hancock lab protocol in non-binding polystyrene microtitre plates, with bacterial suspensions of ∼2 × 10^5 CFU/mL in Mueller-Hinton broth (Difco, Sparks MD, USA), with Mg^2+ and Ca^2+ concentrations of 4 mg/L each. The compounds were dissolved in H2O and diluted in 0.01% acetic acid, 0.2% BSA (final concentration). Aliquots of 11 µL of 10 × test compounds were then transferred to the appropriate wells with bacterial suspensions. For preparation and transfer of the solutions of the compounds, low-binding sterile tubes and tips (Axygen, Union City CA, USA) were used. After 20 h incubation of covered plates at 35 °C (±2 °C) with circular shaking at 220 rpm, the MICs were read. The antibacterial activity of peptidomimetics was tested against E. coli ATCC 25922, K. pneumoniae ATCC 13883, P. aeruginosa ATCC 27853, P. aeruginosa PAO1, A. baumannii ATCC 19606, S. aureus ATCC 29213, and E. faecalis ATCC 29212.

K. pneumoniae ATCC 13883 = assay type: cell-based; conditions: ATCC 13883, 20 h
Procedure: as §1

P. aeruginosa ATCC 27853 = assay type: cell-based; conditions: ATCC 27853, 20 h
Procedure: as §1

S. aureus ATCC 29213 = assay type: cell-based; conditions: for MIC: ATCC 29213, 20 h
Procedure: as §1

A. baumannii ATCC 19606 = assay type: cell-based; conditions: ATCC 19606, 20 h
Procedure: as §1

E. coli ATCC 25922 = assay type: cell-based; conditions: ATCC 25922, 20 h
Procedure: as §1

E. faecalis ATCC 29212 = assay type: cell-based; conditions: for MIC: ATCC 29212, 20 h
Procedure: as §1

in vitro = assay type: cell-based; conditions: human, Hemolytic Activity (percentage hemolysis)
Procedure: The lysis of human red blood cells was measured as previously described, with modifications. In brief, freshly drawn human red blood cells (hRBCs) were washed three times with PBS buffer and centrifuged two times for 5 min at 2500 rpm. A two-fold serial dilution of peptidomimetics in PBS buffer was added to each well in a sterile polypropylene V-bottom 96-well plate to the total volume of 75 μL. A 0.5% v/v hRBC suspension (75 μL in PBS buffer) was added to each well to reach a final volume of 150 μL in each well. The plate was incubated (37 °C) for 60 min, and then the cells were subsequently pelleted by centrifugation at 1000 rpm for 5 min. The supernatants (50 μL) were transferred to clear, flat-bottomed plastic 96-well plates. The concentration of hemoglobin was detected by measuring the OD at 405 nm. The OD of cells incubated with 0.1% SDS defined 100% hemolysis, while the OD of cells incubated with PBS buffer defined 0% hemolysis. The concentrations tested were 200, 400, and 800 μg/mL (only average values for the highest concentration are stated in Table 2).

| Compound | IC50 for inhibiting growth of HepG2 cells [1] [µg/mL] | Hydrophobicity (% MeCN at elution) [2] [%] | MIC (P. aeruginosa PAO1) [µg/mL] | MIC (K. pneumoniae ATCC 13883) [µg/mL] | MIC (P. aeruginosa ATCC 27853) [µg/mL] | MIC (S. aureus ATCC 29213) [µg/mL] | Activity against S. aureus (in words) (S. aureus ATCC 29213) | MIC (A. baumannii ATCC 19606) [µg/mL] | MIC (E. coli ATCC 25922) [µg/mL] | MIC (E. faecalis ATCC 29212) [µg/mL] | Activity against E. faecalis (in words) (E. faecalis ATCC 29212; E. faecalis) | hemolysis at 60 min, 800 µg/mL (in vitro) [%] |
| --- | --- | --- | --- | --- | --- | --- | --- | --- | --- | --- | --- | --- |
| NCCNCC(=O)N[C@@H](CCc1ccccc1)C(=O)N(CCN)CC(=O)N[C@@H](CCc1ccccc1)C(=O)N(CCN)CC(=O)N[C@@H](CCc1ccccc1)C(=O)N(CCN)CC(=O)N[C@@H](CCc1ccccc1)C(=O)N(CCN)CC(=O)N[C@@H](CCc1ccccc1)C(=O)N(CCN)CC(=O)N[C@@H](CCc1ccccc1)C(N)=O [Peptidomimetic 5] (H-[Gly(N-2-aminoethyl)][hPhe][Gly(N-2-aminoethyl)][hPhe][Gly(N-2-aminoethyl)][hPhe][Gly(N-2-aminoethyl)][hPhe][Gly(N-2-aminoethyl)][hPhe][Gly(N-2-aminoethyl)][hPhe]-NH2) | 307 | 43.5 | 16 (≈ 10.1 µM) | 64 (≈ 40.4 µM) | 4 (≈ 2.52 µM) | 8 (≈ 5.05 µM) | moderate activity | >64 | 4 (≈ 2.52 µM) | 32 (≈ 20.2 µM) | weak activity | – |
| NCCCNCC(=O)N[C@@H](CCc1ccccc1)C(=O)N(CCCN)CC(=O)N[C@@H](CCc1ccccc1)C(=O)N(CCCN)CC(=O)N[C@@H](CCc1ccccc1)C(=O)N(CCCN)CC(=O)N[C@@H](CCc1ccccc1)C(=O)N(CCCN)CC(=O)N[C@@H](CCc1ccccc1)C(=O)N(CCCN)CC(=O)N[C@@H](CCc1ccccc1)C(N)=O [Peptidomimetic 6] (H-[Gly(N(CH2)3NH2)][hPhe][Gly(N(CH2)3NH2)][hPhe][Gly(N(CH2)3NH2)][hPhe][Gly(N(CH2)3NH2)][hPhe][Gly(N(CH2)3NH2)][hPhe][Gly(N(CH2)3NH2)][hPhe]-NH2) | 456 | 41.2 | 16 to 32 | >64 | 8 (≈ 4.79 µM) | 16 (≈ 9.59 µM) | moderate activity | >64 | 4 (≈ 2.4 µM) | >64 | – | 8 |
| NCCCCNCC(=O)N[C@@H](CCc1ccccc1)C(=O)N(CCCCN)CC(=O)N[C@@H](CCc1ccccc1)C(=O)N(CCCCN)CC(=O)N[C@@H](CCc1ccccc1)C(=O)N(CCCCN)CC(=O)N[C@@H](CCc1ccccc1)C(=O)N(CCCCN)CC(=O)N[C@@H](CCc1ccccc1)C(=O)N(CCCCN)CC(=O)N[C@@H](CCc1ccccc1)C(N)=O [Peptidomimetic 7] (H-[Nlys][hPhe][Nlys][hPhe][Nlys][hPhe][Nlys][hPhe][Nlys][hPhe][Nlys][hPhe]-NH2) | 720 | 40.6 | 32 to 64 | >64 | 32 (≈ 18.3 µM) | >64 | – | >64 | 2 to 4 | >64 | – | 6 |
| NCCC[C@H](NC(=O)CN(CCc1ccccc1)C(=O)[C@H](CCCN)NC(=O)CN(CCc1ccccc1)C(=O)[C@H](CCCN)NC(=O)CN(CCc1ccccc1)C(=O)[C@H](CCCN)NC(=O)CN(CCc1ccccc1)C(=O)[C@H](CCCN)NC(=O)CN(CCc1ccccc1)C(=O)[C@@H](N)CCCN)C(=O)N(CCc1ccccc1)CC(N)=O [Peptidomimetic 14] (H-[Orn][Gly(NCH2CH2Ph)][Orn][Gly(NCH2CH2Ph)][Orn][Gly(NCH2CH2Ph)][Orn][Gly(NCH2CH2Ph)][Orn][Gly(NCH2CH2Ph)][Orn][Gly(NCH2CH2Ph)]-NH2) | 684 | 40.5 | 8 to 16 | 32 (≈ 19.2 µM) | 8 (≈ 4.79 µM) | >64 | – | >64 | 4 to 8 | >64 | – | 11 |
| NCCCC[C@H](NC(=O)CN(CCc1ccccc1)C(=O)[C@H](CCCCN)NC(=O)CN(CCc1ccccc1)C(=O)[C@H](CCCCN)NC(=O)CN(CCc1ccccc1)C(=O)[C@H](CCCCN)NC(=O)CN(CCc1ccccc1)C(=O)[C@H](CCCCN)NC(=O)CN(CCc1ccccc1)C(=O)[C@@H](N)CCCCN)C(=O)N(CCc1ccccc1)CC(N)=O [Peptidomimetic 15] (H-K[Gly(NCH2CH2Ph)]K[Gly(NCH2CH2Ph)]K[Gly(NCH2CH2Ph)]K[Gly(NCH2CH2Ph)]K[Gly(NCH2CH2Ph)]K[Gly(NCH2CH2Ph)]-NH2) | 595 | 40.5 | 8 to 16 | >64 | 16 (≈ 9.13 µM) | >64 | – | 64 (≈ 36.5 µM) | 4 (≈ 2.28 µM) | >64 | – | 8 |
